According to article PMC11623267, “Inhibitors of malaria parasite cyclic nucleotide phosphodiesterases block asexual blood-stage development and mosquito transmission” (Science Advances, 2024):
Where two headings read alike, the source gives them in different places.

Tests used:
[1] = tested on: P. falciparum NF54-HGL stage V gametocytes fed to A. stephensi mosquitoes; test: SMFA dose response (luminescence); format: in vivo, Plasmodium falciparum
Description: Compounds were diluted in DMSO and then in culture medium (RPMI 1640 supplemented with 367 μM hypoxanthine, 25 mM Hepes, 25 mM sodium bicarbonate, and 10% human type A serum) to achieve a final DMSO concentration of 0.1%. Compounds were incubated with stage V gametocytes from the P. falciparum NF54-HGL reporter strain ([60]) for 48 hours at 37°C in Eppendorf tubes. Subsequently, parasites were pelleted by centrifugation (20 s at 20,000g) and resuspended in human type A serum containing diluted compound (final DMSO concentration of 0.1%) and human type O RBCs to achieve a hematocrit of 50%. This blood meal was then fed to 3- to 5-day-old A. stephensi mosquitoes [Sind-Kasur Nijmegen strain ([61])] for 10 min. Following feeding, unfed mosquitoes were removed, and mosquitoes were maintained at 26°C and 70 to 80% relative humidity. Eight days after feeding, oocyst intensity and prevalence were assessed by luminescence measurement of individual mosquitoes as described ([60]). All conditions were tested in duplicate, and for each replicate, a total of 24 mosquitoes were analyzed. IC50 values were estimated by fitting a four-parameter Hill model to the data using least squares to find the best fit. Controls included vehicle (0.1% DMSO) and 10 μM DHA.

[2] = tested on: P. falciparum Dd2-B2 lines selected under drug pressure; test: 72-hour flow cytometry EC50 assay, lines selected under drug pressure; format: cell-based, Plasmodium falciparum; details: for EC50: Plasmodium falciparum
[3] = tested on: P. falciparum (clone 3D7); test: Parasite reduction ratio (PRR) assay; format: cell-based, Plasmodium falciparum
Description: The in vitro killing profile of compounds was determined by monitoring the ability of parasites to recover following treatment with a compound of interest using a previously reported approach ([50]), which allowed calculation of the PRR ([51]). […] To quantify the number of viable parasites following treatment, four independent sets of threefold serial dilutions were performed on each sample, which were assayed for the presence or absence of parasites after 28 days using the LDH assay, and the number of viable parasites was determined by the number of wells showing growth. PRR and PCT99.9% were calculated as previously reported ([50]).

P. falciparum Dd2-B2 = test: 72-hour flow cytometry EC50 assay, Dd2-B2 parental line; format: cell-based, Plasmodium falciparum; details: Plasmodium falciparum, DD2, read-out: EC50 Dd2-B2 parental line
P. falciparum 3D7 = test: Ex vivo 72-hour SYBR Green assay, 3D7 control (Uganda); format: cell-based, Plasmodium falciparum; details: Ugandan ex vivo assay control; read-out: EC50 lab strain 3D7
Description: (§1) Samples were delivered to the adjacent IDRC laboratory at Tororo District Hospital or transported by car from Masafu Hospital on the day of collection for storage of blood spots on filter paper (for isolation of nucleic acids) and initiation of ex vivo culture of malaria parasites. […] Before assay, 10 mM antimalarial stock compounds were diluted as necessary in DMSO and stored at −20°C. […] Compounds were serially diluted threefold in a 96-well assay plate in complete medium to a final volume of 50 μl, in columns 1 to 10, with concentrations optimized to capture full dose-response curves. Column 11 contained compound-free controls, while column 12 contained uninfected human RBC controls. Parasite culture (150 μl) was added to columns 1 to 11 of the assay plate with a final volume of 200 μl per well, 0.2% parasitemia, and 2% hematocrit. […] Thawed plates were incubated with SYBR Green lysis buffer for 1 hour in the dark as previously reported ([62]). Fluorescence was quantified using a BMG Fluostar Optima plate reader at an excitation of 485 nm and an emission of 530 nm, and data were plotted using GraphPad Prism 7. The data were curve fit with a variable slope function to estimate IC50 values. For each isolate, a Z′ factor to assess assay quality was calculated from positive controls (eight drug-free wells) and negative controls (eight parasite-free, red cell control wells). Z′ values over 0.5 were considered good assays, but each curve was also examined by eye for suitability. Some assays with Z′ below 0.5 may be considered valid depending on factors such as the SE of the curve-fit IC50.

P. falciparum Dd2 = test: Ex vivo 72-hour SYBR Green assay, Dd2 control (Uganda); format: cell-based, Plasmodium falciparum; details: Ugandan ex vivo assay control; read-out: EC50 lab strain Dd2
Description: as §1

| Compound | IC50 ([1]; read-out: SMFA IC50 infection (transmission) prevalence, 48 hours incubation; oocysts 8 days after feeding) [nM] | IC50 ([1]; read-out: SMFA IC50 infection (transmission) prevalence; 48 hours incubation; oocysts 8 days after feeding) [nM] | IC50 ([1]; read-out: SMFA IC50 oocyst (transmission) intensity, 48 hours incubation; oocysts 8 days after feeding) [nM] | IC50 ([1]; read-out: SMFA IC50 oocyst (transmission) intensity; 48 hours incubation; oocysts 8 days after feeding) [nM] | EC50 ([2]; DD2, read-out: EC50, line selected with SAL-0010003, Well A7) [nM] | EC50 ([2]; DD2, read-out: EC50, line selected with SAL-0010003, Well E2) [nM] | EC50 ([2]; DD2, read-out: EC50, line selected with SAL-0010003, Well F10) [nM] | Mean fold change in EC50 ([2]; selected lines vs Dd2-B2 parental line, ±SD) [fold] | EC50 shift, line selected with SAL-0010003, Well A7 ([2]; vs Dd2-B2) [fold] | EC50 shift, line selected with SAL-0010003, Well E2 ([2]; vs Dd2-B2) [fold] | EC50 shift, line selected with SAL-0010003, Well F10 ([2]; vs Dd2-B2) [fold] | Lag phase ([3]; 10× EC50, 3D7) [h] | Log PRR ([3]; 10× EC50, 3D7) | PCT99.9% (hours taken to kill 99.9% of the parasites) ([3]; 10× EC50, 3D7) [h] | Slope ([3]; 10× EC50, 3D7 killing profile) | Killing profile ([3]; 10× EC50, faster than pyrimethamine, slower than chloroquine) | EC50 (P. falciparum Dd2-B2) [nM] | EC50 (P. falciparum 3D7) [nM] | EC50 (P. falciparum Dd2) [nM] |
| --- | --- | --- | --- | --- | --- | --- | --- | --- | --- | --- | --- | --- | --- | --- | --- | --- | --- | --- | --- |
| CC(C)c1n[nH]c2c(=O)[nH]c(Cc3ccc(F)cc3F)nc12 [SAL-0010003] | 116 | 116 | 67.3 | 67 | 2800 | 2510 | 1620 | 7.6 ± 2.0 | 9.2 | 8.3 | 5.3 | 0 | 3.11 | 47.1 | −0.0647 ± 0.0047 | fast/moderate killing profile | 304 | – | – |
| CC(C)c1[nH]nc2c(=O)[nH]c(Cc3ccccc3F)nc12 [SAL-0010042] | – | – | – | – | – | – | – | – | – | – | – | – | – | – | – | – | – | 132 | 115 |
